Data published in article PMC8445441, “Elucidating the mechanism by which synthetic helper peptides sensitize Pseudomonas aeruginosa to multiple antibiotics” (PLoS Pathogens, 2021).
Read-outs that look alike come from different tables or passages of the source.

Columns and labels:
[1] = test system: P. aeruginosa PAK; test: microbe, parasite or virus in culture; design: MICa: MIC of the antibiotic / MICac: MIC of the antibiotic in the combination: unit not given beside the values; conditions: strain PAK
In short: (§1)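 Broth microdilution per CLSI in MHB: two-fold drug dilutions mixed with an equal volume of bacterial suspension at approximately 1 × 10^6 CFU/mL, incubated 18 h at 37 °C. MIC was the lowest concentration with no visible growth; triplicate runs.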

[2] = test system: P. aeruginosa ATCC27853; test: microbe, parasite or virus in culture; design: MICa: MIC of the antibiotic / MICac: MIC of the antibiotic in the combination: unit not given beside the values; conditions: strain ATCC27853
In short: as §1

[3] = test system: P. aeruginosa PA14; test: microbe, parasite or virus in culture; design: MICa: MIC of the antibiotic / MICac: MIC of the antibiotic in the combination: unit not given beside the values; conditions: strain PA14
In short: as §1

[4] = test system: P. aeruginosa NR-31040; test: microbe, parasite or virus in culture; design: MICa: MIC of the antibiotic / MICac: MIC of the antibiotic in the combination: unit not given beside the values; conditions: strain NR-31040
In short: as §1

[5] = test system: P. aeruginosa NR-31041; test: microbe, parasite or virus in culture; design: MICa: MIC of the antibiotic / MICac: MIC of the antibiotic in the combination: unit not given beside the values; conditions: strain NR-31041
In short: as §1

[6] = test system: P. aeruginosa AUMC-Pa-6; test: microbe, parasite or virus in culture; conditions: strain AUMC-Pa-6
In short: as §1

[7] = test system: P. aeruginosa AUMC-Pa-3; test: microbe, parasite or virus in culture; conditions: strain AUMC-Pa-3
In short: as §1

[8] = test system: P. aeruginosa PAO1; test: microbe, parasite or virus in culture; conditions: Pseudomonas aeruginosa, PAO1, 18 h, read-out: MICa: the MIC of antibiotics, S1 Table; macrolide alone; PAO1
In short: as §1

[9] = test system: P. aeruginosa AUMC-Pa-5; test: microbe, parasite or virus in culture; conditions: strain AUMC-Pa-5
In short: as §1

[10] = test system: P. aeruginosa AUMC-Pa-4; test: microbe, parasite or virus in culture; conditions: strain AUMC-Pa-4
In short: as §1

[11] = test system: P. aeruginosa AUMC-Pa-1; conditions: strain AUMC-Pa-1; antibiotic + D-11 (MICb/MICbc 128/4)
In short: as §1

[12] = test system: P. aeruginosa AUMC-Pa-2; conditions: strain AUMC-Pa-2; antibiotic + D-11 (MICb/MICbc 64/4)
In short: as §1

[13] = test system: P. aeruginosa HM-214; conditions: strain HM-214; antibiotic + D-11 (MICb/MICbc 128/4)
In short: as §1

[14] = test system: clinical P. aeruginosa isolates; test: microbe, parasite or virus in culture; conditions: Pseudomonas aeruginosa, 18 h, antibiotic alone
In short: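 Broth microdilution per CLSI in MHB, two-fold drug dilutions mixed with an equal volume of bacteria at about 1 × 10^6 CFU/mL. After 18 h at 37 °C, MIC taken as the lowest concentration with no visible growth; run in triplicate.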

[15] = antibiotic + D-11 (MICb/MICbc 64/4)
[16] = antibiotic alone, unit not given
[17] = with D-11 at MICbc 4, unit not given
[18] = antibiotic + D-11 (MICb/MICbc 128/4)

CC[C@H]1OC(=O)[C@H](C)C(=O)[C@H](C)[C@@H](O[C@@H]2O[C@H](C)C[C@H](N(C)C)[C@H]2O)[C@](C)(OC)C[C@@H](C)C(=O)[C@H](C)[C@H]2N(CCCCn3cnc(-c4cccnc4)c3)C(=O)O[C@]12C [Telithromycin]
FICI [1, 15]: 0.313
MICa: MIC of the antibiotic [1, 16]: 64
MICac: MIC of the antibiotic in the combination [1, 17]: 16
FICI ([2]; antibiotic + D-11 (MICb/MICbc 32/4)): 0.250
MICa: MIC of the antibiotic [2, 16]: 64
MICac: MIC of the antibiotic in the combination [2, 17]: 8
FICI [3, 18]: 0.281
MICa: MIC of the antibiotic [3, 16]: 64
MICac: MIC of the antibiotic in the combination [3, 17]: 16
FICI [4, 18]: 0.531
MICa: MIC of the antibiotic [4, 16]: 128
MICac: MIC of the antibiotic in the combination [4, 17]: 64
FICI [5, 15]: 0.188
MICa: MIC of the antibiotic [5, 16]: 128
MICac: MIC of the antibiotic in the combination [5, 17]: 16
FICI [6, 15]: 0.563
MICa: MIC of the antibiotic [6, 16]: 64
MICac: MIC of the antibiotic in the combination [6, 17]: 32
FICI [7, 18]: 0.063
MICa: MIC of the antibiotic [7, 16]: 64
MICac: MIC of the antibiotic in the combination [7, 17]: 2
MIC [8]: 64 µM
FICI [9, 15]: 0.563
MICa: MIC of the antibiotic [9, 16]: 64
MICac: MIC of the antibiotic in the combination [9, 17]: 32
FICI [10, 18]: 0.531
MICa: MIC of the antibiotic [10, 16]: 64
MICac: MIC of the antibiotic in the combination [10, 17]: 32
FICI [11]: 0.156
FICI [12]: 0.313
FICI [13]: 0.156
MIC ([14]; read-out: Antibiotic sensibility (MIC) of clinical P. aeruginosa isolate AUMC-Pa-1, strain AUMC-Pa-1): 128 µM
MIC ([14]; read-out: Antibiotic sensibility (MIC) of clinical P. aeruginosa isolate AUMC-Pa-2, strain AUMC-Pa-2): 64 µM
MIC ([14]; read-out: Antibiotic sensibility (MIC) of clinical P. aeruginosa isolate AUMC-Pa-3, strain AUMC-Pa-3): 64 µM
MIC ([14]; read-out: Antibiotic sensibility (MIC) of clinical P. aeruginosa isolate AUMC-Pa-4, strain AUMC-Pa-4): 64 µM
MIC ([14]; read-out: Antibiotic sensibility (MIC) of clinical P. aeruginosa isolate AUMC-Pa-5, strain AUMC-Pa-5): 64 µM
MIC ([14]; read-out: Antibiotic sensibility (MIC) of clinical P. aeruginosa isolate AUMC-Pa-6, strain AUMC-Pa-6): 64 µM
MIC ([14]; read-out: Antibiotic sensibility (MIC) of clinical P. aeruginosa isolate HM-214, strain HM-214): 128 µM
MIC ([14]; read-out: Antibiotic sensibility (MIC) of clinical P. aeruginosa isolate NR-31040, strain NR-31040): 128 µM
MIC ([14]; read-out: Antibiotic sensibility (MIC) of clinical P. aeruginosa isolate NR-31041, strain NR-31041): 128 µM
